Measured values published in patent US20170292961A1, “SYSTEMS AND METHODS FOR ASSESSING INTER-CELL COMMUNICATION” (Q-STATE BIOSCIENCES, INC., priority 2014, published 2017).
Values joined by “and” are separate entries in the source; they are usually repeats but may differ in a detail not shown here. Equal values may be shown once. Read-outs that look alike come from different tables or passages of the source.

Legend:
[1] = tested on: estrogen sulfotransferase; conditions: pathway of metabolism of birth control pill ingredients; cited from earlier work
patient-derived neurons = test: Spike frequency of patient-derived neurons exposed to an anticonvulsant; assay type: cell-based; conditions: for spike frequency: in DMSO versus DMSO alone
Description: FIG. 52 illustrates the results of exposing patient-derived neurons to acute doses of an anticonvulsant. A frequency of spiking is plotted over unitless scaled stimulus strength. Angled vertical lines are drawn onto the graph to aid in showing which data points correspond to one another. Asterisks are used to indicate a significance of a difference. […] FIG. 53 illustrates the results of exposing patient-derived neurons to chronic doses of an anticonvulsant. A frequency of spiking is plotted over unitless scaled stimulus strength. After exposure to STR in DMSO (versus exposure to the DMSO alone), spike frequency is decreased. […] Thus it can be seen that methods and compositions of the invention may be used to evaluate signal propagation between cells such as cardiomyocytes or neurons.

neurons = tested on: neurons
Description: Methods of the invention may be used to evaluate the effects of compounds on neurons. In some embodiments, the cells that include the optical voltage reporter are neurons and those neurons are exposed to a voltage-gated potassium channel blocker such as tetraethylammonium.

membrane voltage [2] = conditions: literature indicators; cited from earlier work
HEK 293T cells = test: Arch fluorescence versus membrane potential in HEK cells under whole-cell voltage clamp; assay type: cell-based, human
Description: An optical reporter such as Arch 3 may be expressed in human embryonic kidney 293 (HEK293T) cells. Fluorescence of Arch 3 in HEK 293T cells was readily imaged in an inverted fluorescence microscope with red illumination (=640 nm, I=540 W/cm2), a high numerical aperture objective, a Cy5 filter set, and an EMCCD camera.
Fluorescence of Arch 3 in HEK 293 cells was readily imaged in an inverted fluorescence microscope with red illumination (lambda=640 nm, I=540 W/cm̂2), a high numerical aperture objective, a Cy5 filter set, and an EMCCD camera. […] Cells not expressing Arch were not fluorescent.
The fluorescence of HEK cells expressing Arch was highly sensitive to membrane potential, as determined via whole-cell voltage clamp. We developed an algorithm to combine pixel intensities in a weighted sum such that the output, was a nearly optimal estimate of membrane potential V determined by conventional electrophysiology.
The fluorescence was divided by its value at −150 mV. The fluorescence increased by a factor of 2 between −150 mV and +150 mV, with a nearly linear response throughout this range (FIG. 35). The response of fluorescence to a step in membrane potential occurred within the 500 micro s time resolution of our imaging system on both the rising and falling edge.
The overshoots on the rising and falling edges were an artifact of electronic compensation circuitry. Data were an average of 20 cycles. […] Cells not expressing Arch 3 were not fluorescent. […] Application of a sinusoidally varying membrane potential led to sinusoidally varying fluorescence; at f=1 kHz, the fluorescence oscillations retained 55% of their low-frequency amplitude (FIG. 37). Arch reported voltage steps as small as 10 mV, with an accuracy of 625 micro V/(Hz)̂(1/2) over timescales<12 s (FIG. 38). Over longer timescales laser power fluctuations and cell motion degraded the accuracy.

membrane voltage [3] = test: Speed and sensitivity of fluorescent voltage indicators
Description: Membrane voltage can be measured with a precision of <1 mV in a 1 s interval. […] Arch 3 WT retains the photo-induced proton-pumping, so illumination slightly hyperpolarizes the cell. […] The voltage-indicating protein reporters, sometimes referred to as genetically encoded voltage indicators (GEVIs), may be excited with a laser at wavelengths between 590-640 nm, and the emission is in the near infrared, peaked at 710 nm.

Description for cardiomyocytes: In some embodiments, the reporter cells also include an optical ion sensor that indicates an intracellular concentration of an ion, for example, a calcium reporter. In a preferred embodiment, the optical voltage reporter and the calcium reporter are provided together within a fusion protein. For example, the fusion protein may be CaViar which includes a calcium reporter and a voltage indicator. Using such a fusion protein, detecting the optical signal may include detecting an action potential and calcium transients.
The columns show results from increasing concentrations and each panel is fluorescence over time.

Molecule: CO[C@H]1/C=C/O[C@@]2(C)Oc3c(C)c(O)c4c(O)c(c(/C=N/N5CCN(C)CC5)c(O)c4c3C2=O)NC(=O)/C(C)=C\C=C\[C@H](C)[C@H](O)[C@@H](C)[C@@H](O)[C@@H](C)[C@H](OC(C)=O)[C@@H]1C [Rifampin]
- induction of estrogen sulfotransferase [1]: induce

Molecule: O=C(NCC1CCCCN1)c1cc(OCC(F)(F)F)ccc1OCC(F)(F)F (stereo not drawn) [flecainide]
- AP30 (cardiomyocytes): decrease
- AP60 (cardiomyocytes): decrease
- AP90 (cardiomyocytes): decrease
- Ca amplitude (cardiomyocytes): decrease
- average action potential waveform (cardiomyocytes): diverge dramatically
- calcium trace (fluorescence over time) (cardiomyocytes): dramatically diminished
- rise time (cardiomyocytes): increase
- rise time (average, FIG. 46) (cardiomyocytes): interferes with rise time
- voltage trace (fluorescence over time) (cardiomyocytes): dramatically diminished

Molecule: COc1c(N2C[C@@H]3CCCN[C@@H]3C2)c(F)cc2c(=O)c(C(=O)O)cn(C3CC3)c12 [moxifloxacin]
- AP30 (cardiomyocytes): decrease
- AP60 (cardiomyocytes): decrease
- AP90 (cardiomyocytes): decrease
- Ca amplitude (cardiomyocytes): decrease
- average action potential waveform (cardiomyocytes): AP prolongation
- calcium trace (fluorescence over time) (cardiomyocytes): severely diminished
- rise time (cardiomyocytes): increase
- voltage trace (fluorescence over time) (cardiomyocytes): less pronounced effect

Molecule: CC(C)(C)C(O)/C=C/c1ccc2c(c1)OCO2 (stereo not drawn) [stiripentol]
- spike frequency (patient-derived neurons; acute doses): significantly decreased
- spike frequency (patient-derived neurons; chronic doses): decreased
- impact on spike frequency, acute versus chronic exposure (patient-derived neurons; visual comparison of FIG. 52 to FIG. 53): acute STR has a more severe impact on spike frequency than chronic exposure

Molecule: CC[N+](CC)(CC)CC [tetraethylammonium]
- instantaneous firing rate (neurons; after a few seconds of increasing stimulus intensity, before vs after exposure): unexposed cells (“before”) consistently fire at a higher rate
- Ahp (neurons; after exposure): change in Ahp
- number of spiking cells (neurons; after exposure): reduction in the number of spiking cells
- return of fluorescence to baseline (average waveform) (neurons; after exposure): does not return to baseline to the degree it did before exposure
- spike height (neurons; after exposure): lower
- instantaneous firing rate (neurons; lower stimulus intensities (time=0 to about 2 s), exposed cells): a few very high spikes in firing rate

Molecule: Flash
- f (delta F/F per 100 mV) (membrane voltage [2]): 5.1%
- response time (membrane voltage [2]): 2.8 to 85 ms

B1: Arch 3 WT: wild type Archaerhodopsin 3, light-driven proton pump from Halorubrum sodomense used as fluorescent voltage indicator (protein, UniProt P96787 7-258, looked up)
Archaerhodopsin-3: QAGYDLLGDGRPETLWLGIGTLLMLIGTFYFLVRGWGVTDKDAREYYAVTILVPGIASAAYLSMFFGIGLTEVTVGGEMLDIYYARYADWLFTTPLLLLDLALLAKVDRVTIGTLVGVDALMIVTGLIGALSHTAIARYSWWLFSTICMIVVLYFLATSLRSAAKERGPEVASTFNTLTALVLVLWTAYPILWIIGTEGAGVVGLGIETLLFMVLDVTAKVGFGFILLRSRAILGDTEAPEPSAGADVSAAD
- smallest voltage steps reported (HEK 293T cells): 10 mV
- fluorescence increase (factor) (HEK 293T cells; between −150 mV and +150 mV): 2
- response of fluorescence to a step in membrane potential (HEK 293T cells; rising and falling edge, time resolution of imaging system): ≤ 500 micro s
- fluorescence oscillation amplitude retained relative to low-frequency amplitude (HEK 293T cells; sinusoidally varying membrane potential, f=1 kHz): 55%
- step response time (HEK 293T cells; steps between −70 mV and +30 mV, resolution of imaging system): < 0.5 ms
- accuracy of reported voltage (HEK 293T cells; timescales<12 s): 625 micro V/(Hz)̂(1/2)
- time to 90% of step response (membrane voltage [3]): 0.6 ms
- response time (membrane voltage [3]; Arch indicators): < 0.5 ms and 0.6 ms

B2: Arch D95N: Archaerhodopsin 3 with D95N mutation, voltage indicator (protein, UniProt P96787 7-258, looked up, variant D95N)
Archaerhodopsin-3: QAGYDLLGDGRPETLWLGIGTLLMLIGTFYFLVRGWGVTDKDAREYYAVTILVPGIASAAYLSMFFGIGLTEVTVGGEMLDIYYARYANWLFTTPLLLLDLALLAKVDRVTIGTLVGVDALMIVTGLIGALSHTAIARYSWWLFSTICMIVVLYFLATSLRSAAKERGPEVASTFNTLTALVLVLWTAYPILWIIGTEGAGVVGLGIETLLFMVLDVTAKVGFGFILLRSRAILGDTEAPEPSAGADVSAAD
- f (delta F/F per 100 mV) (membrane voltage [3]; Arch indicators): 100%
- response time (membrane voltage [3]; Arch indicators): 41 ms
